Assay results taken from US7709444B2, “Echinocandin pharmaceutical formulations containing micelle-forming surfactants” (Pfizer Inc., priority 1999, dated 2010).
*1 amine or outer side, *2 acyl side, *3 side chain or, on linkers, in order; H or OH if unused. Where a SMILES comes first, the peptide text is derived from it. Bridges are numbered along the chain shown (N, C = ends). [ ]: non-standard residue; d: D form. The star is where a group is joined. ξ: configuration not given here. pTerphenylCO(4''-OnC5H11) = CCCCCOc1ccc(-c2ccc(-c3ccc(C(=O)*)cc3)cc2)cc1; ξOrn(4,5-diOH) = O=C(C(CC(O)C(O)N[*:3])N[*:1])[*:2]; ξhTyr(βξ-OH,γξ-OH) = NC(C(=O)O)C(O)C(O)c1ccc(O)cc1; ξPro(3ξ-OH,4ξ-Me) = CC1CNC(C(=O)O)C1O; Hyp = O=C(O)[CH]1C[CH](O)CN1

Experiments:
[1] = Stability of freeze-dried formulations, related substances by reverse phase HPLC, storage at 40° C.; assay type: physicochemical; conditions: 6(a) Potency 10, Poly 80(25), no B, no SA, Man(50)
Protocol: (§1) The stability of solution and freeze-dried formulations was evaluated by monitoring a sample of the formulation for the percent increase in related substances by reverse phase HPLC at initial, 2 weeks and 4 weeks of storage at 40° C.

[2] = Stability of solution formulations, related substances by reverse phase HPLC, storage at 40° C.; assay type: physicochemical
Protocol: as §1

For `CCCCCOc1ccc(-c2ccc(-c3ccc(C(=O)NC4CC(O)C(O)NC(=O)C5C(O)C(C)CN5C(=O)C(C(C)O)NC(=O)C(C(O)C(O)c5ccc(O)cc5)NC(=O)C5CC(O)CN5C(=O)C(C(C)O)NC4=O)cc3)cc2)cc1` (stereo not drawn) [Compound 6(a)] ({pTerphenylCO(4''-OnC5H11)}-[ξOrn(4,5-diOH)]T[Hyp][ξhTyr(βξ-OH,γξ-OH)]T[ξPro(3ξ-OH,4ξ-Me)]; lactam 1-C; configuration not given here), the “% Related Substances” value ([1]; 2 wks) was 4.85%, the “% Related Substances” value ([1]; 4 wks) was 5.45% and the “Percent Related Substances” value ([2]; 6(a) 1 mg/ml, Poly 80(25), Ace(0.6), Man(50), 0 wks) was 3.15%. For the same compound, the “Percent Related Substances” value ([2]; 6(a) 1 mg/ml, Poly 80(25), Ace(0.6), Man(50), 2 wks) was 11.37%, the “Percent Related Substances” value ([2]; 6(a) 1 mg/ml, Poly 80(25), Ace(0.6), Man(50), 4 wks) was 19.44% and the “Percent Related Substances” value ([2]; 6(a) 1 mg/ml, Poly 80(25), Ace(3), Man(50), 0 wks) was 3.33%. For the same compound, the “Percent Related Substances” value ([2]; 6(a) 1 mg/ml, Poly 80(25), Ace(3), Man(50), 2 wks) was 12.20%, the “Percent Related Substances” value ([2]; 6(a) 1 mg/ml, Poly 80(25), Ace(3), Man(50), 4 wks) was 18.29% and the “Percent Related Substances” value ([2]; 6(a) 1 mg/ml, Poly 80(25), Ace(6), Man(50), 0 wks) was 3.27%. The “Percent Related Substances” value ([2]; 6(a) 1 mg/ml, Poly 80(25), Ace(6), Man(50), 2 wks) was 11.07%, the “Percent Related Substances” value ([2]; 6(a) 1 mg/ml, Poly 80(25), Ace(6), Man(50), 4 wks) was 19.59% and the “Percent Related Substances” value ([2]; 6(a) 1 mg/ml, Poly 80(25), Cit(1.9), Man(50), 0 wks) was 3.42%. The “Percent Related Substances” value ([2]; 6(a) 1 mg/ml, Poly 80(25), Cit(1.9), Man(50), 2 wks) was 8.91%, the “Percent Related Substances” value ([2]; 6(a) 1 mg/ml, Poly 80(25), Cit(1.9), Man(50), 4 wks) was 18.04% and the “Percent Related Substances” value ([2]; 6(a) 1 mg/ml, Poly 80(25), Cit(9.6), Man(50), 0 wks) was 3.36%. The “Percent Related Substances” value ([2]; 6(a) 1 mg/ml, Poly 80(25), Cit(9.6), Man(50), 2 wks) was 9.25%, the “Percent Related Substances” value ([2]; 6(a) 1 mg/ml, Poly 80(25), Cit(9.6), Man(50), 4 wks) was 17.29% and the “Percent Related Substances” value ([2]; 6(a) 1 mg/ml, Poly 80(25), Cit(19.2), Man(50), 0 wks) was 3.47%. For the same compound, the “Percent Related Substances” value ([2]; 6(a) 1 mg/ml, Poly 80(25), Cit(19.2), Man(50), 2 wks) was 9.70%, the “Percent Related Substances” value ([2]; 6(a) 1 mg/ml, Poly 80(25), Cit(19.2), Man(50), 4 wks) was 18.02% and the “Percent Related Substances” value ([2]; 6(a) 10 mg/ml, Poly 80(5) + Poly 20(20), Ace(6), 0 wks) was 2.67%. The “Percent Related Substances” value ([2]; 6(a) 10 mg/ml, Poly 80(5) + Poly 20(20), Ace(6), 2 wks) was 9.77%, the “Percent Related Substances” value ([2]; 6(a) 10 mg/ml, Poly 80(5) + Poly 20(20), Ace(6), 4 wks) was 15.57% and the “Percent Related Substances” value ([2]; 6(a) 10 mg/ml, Poly 80(15) + Poly 20(10), Ace(6), 0 wks) was 2.70%. For the same compound, the “Percent Related Substances” value ([2]; 6(a) 10 mg/ml, Poly 80(15) + Poly 20(10), Ace(6), 2 wks) was 10.55%, the “Percent Related Substances” value ([2]; 6(a) 10 mg/ml, Poly 80(15) + Poly 20(10), Ace(6), 4 wks) was 15.34% and the “Percent Related Substances” value ([2]; 6(a) 10 mg/ml, Poly 80(20) + Poly 20(5), Ace(6), 0 wks) was 2.65%. For the same compound, the “Percent Related Substances” value ([2]; 6(a) 10 mg/ml, Poly 80(20) + Poly 20(5), Ace(6), 2 wks) was 11.06%, the “Percent Related Substances” value ([2]; 6(a) 10 mg/ml, Poly 80(20) + Poly 20(5), Ace(6), 4 wks) was 15.44% and the “Percent Related Substances” value ([2]; 6(a) 10 mg/ml, Poly 80(25) only, no buffer, 0 wks) was 3.62%. For the same compound, the “Percent Related Substances” value ([2]; 6(a) 10 mg/ml, Poly 80(25) only, no buffer, 2 wks) was 18.71%, the “Percent Related Substances” value ([2]; 6(a) 10 mg/ml, Poly 80(25) only, no buffer, 4 wks) was 27.91% and the “Percent Related Substances” value ([2]; 6(a) 10 mg/ml, Poly 80(25), Ace(3), 0 wks) was 2.51%. For the same compound, the “Percent Related Substances” value ([2]; 6(a) 10 mg/ml, Poly 80(25), Ace(3), 2 wks) was 9.46%, the “Percent Related Substances” value ([2]; 6(a) 10 mg/ml, Poly 80(25), Ace(3), 4 wks) was 14.39% and the “Percent Related Substances” value ([2]; 6(a) 10 mg/ml, Poly 80(25), Ace(6), co-solvent 20% PEG400, 0 wks) was 2.83%. The “Percent Related Substances” value ([2]; 6(a) 10 mg/ml, Poly 80(25), Ace(6), co-solvent 20% PEG400, 2 wks) was 9.69%, the “Percent Related Substances” value ([2]; 6(a) 10 mg/ml, Poly 80(25), Ace(6), co-solvent 20% PEG400, 4 wks) was 14.35% and the “Percent Related Substances” value ([2]; 6(a) 10 mg/ml, Poly 80(25), Ace(6), co-solvent 20% PPG, 0 wks) was 2.71%. The “Percent Related Substances” value ([2]; 6(a) 10 mg/ml, Poly 80(25), Ace(6), co-solvent 20% PPG, 2 wks) was 10.58%, the “Percent Related Substances” value ([2]; 6(a) 10 mg/ml, Poly 80(25), Ace(6), co-solvent 20% PPG, 4 wks) was 13.40% and the “Percent Related Substances” value ([2]; 6(a) 10 mg/ml, Poly 80(25), Ace(6), co-solvent 40% PEG400, 0 wks) was 2.57%. The “Percent Related Substances” value ([2]; 6(a) 10 mg/ml, Poly 80(25), Ace(6), co-solvent 40% PEG400, 2 wks) was 10.38%, the “Percent Related Substances” value ([2]; 6(a) 10 mg/ml, Poly 80(25), Ace(6), co-solvent 40% PEG400, 4 wks) was 13.36% and the “Percent Related Substances” value ([2]; 6(a) 10 mg/ml, Poly 80(25), Ace(6), co-solvent 40% PPG, 0 wks) was 2.72%. For the same compound, the “Percent Related Substances” value ([2]; 6(a) 10 mg/ml, Poly 80(25), Ace(6), co-solvent 40% PPG, 2 wks) was 9.84%, the “Percent Related Substances” value ([2]; 6(a) 10 mg/ml, Poly 80(25), Ace(6), co-solvent 40% PPG, 4 wks) was 12.65% and the “Percent Related Substances” value ([2]; 6(a) 10 mg/ml, Poly 80(25), no buffer, Man(50), 0 wks) was 3.68%. The “Percent Related Substances” value ([2]; 6(a) 10 mg/ml, Poly 80(25), no buffer, Man(50), 2 wks) was 16.65%, the “Percent Related Substances” value ([2]; 6(a) 10 mg/ml, Poly 80(25), no buffer, Man(50), 4 wks) was 23.68% and the “Percent Related Substances” value ([2]; 6(a) 10 mg/ml, Poly 80(25), no buffer, co-solvent 1% PEG 3350, 0 wks) was 3.68%. For the same compound, the “Percent Related Substances” value ([2]; 6(a) 10 mg/ml, Poly 80(25), no buffer, co-solvent 1% PEG 3350, 2 wks) was 21.56%, the “Percent Related Substances” value ([2]; 6(a) 10 mg/ml, Poly 80(25), no buffer, co-solvent 40% PEG 400, 0 wks) was 3.73% and the “Percent Related Substances” value ([2]; 6(a) 10 mg/ml, Poly 80(25), no buffer, co-solvent 40% PEG 400, 2 wks) was 15.26%. For the same compound, the “Percent Related Substances” value ([2]; 6(a) 10 mg/ml, Poly 80(25), no buffer, co-solvent 40% PEG 400, 4 wks) was 23.99%.
